Tests used:
Huh-7 cells = experiment: In vitro antiproliferative MTT assay, Huh-7 cells; assay type: cell-based, human; conditions: Homo sapiens, 72 h, mean ± SD (n = 3)
Protocol: (§1) HepG2, Sk-Hep-1, Huh-7, Hep3B and L-02 cells were purchased from Nanjing Key Gen Biotech Co. Ltd. (Nanjing, China). The cytotoxicity of test compounds was determined using an MTT assay. Briefly, the cell lines were incubated at 37 °C in a humidified 5% CO2 incubator for 24 h in 96-microwell plates. After medium removal, 100 μL of culture medium with 0.1% DMSO containing test compounds at different concentrations was added to each well and incubated at 37 °C for another 72 h. The MTT (5 mg/mL in PBS) was added and incubated for another 4 h, the optical density was detected with a microplate reader at 490 nm. The IC50 values were calculated according to the dose-dependent curves. All the experiments were repeated in at least three independent experiments.

Hep3B cells = experiment: In vitro antiproliferative MTT assay, Hep3B cells; assay type: cell-based, human; conditions: Homo sapiens, 72 h, mean ± SD (n = 3)
Protocol: as §1

normal hepatocytes L-02 = experiment: MTT cytotoxicity assay, normal hepatocytes L-02; assay type: cell-based; conditions: Hepatocyte; normal hepatocytes L-02, MTT, 72 h, mean ± SD (n = 3)
Protocol: as §1

HepG2 cells = experiment: Cell cycle analysis by PI staining and flow cytometry; assay type: cell-based, human; conditions: for G2 phase cell percentage: 72 h (control 18.00%); for S phase cell percentage: 72 h (control 22.95%); for G1 phase cell percentage: 72 h (control 59.05%)
Protocol: HepG2 cells were seeded into 6-well plates and incubated at 37 °C in a humidified 5% CO2 incubator for 24 h, and then treated with or without 6k at indicated concentrations for another 72 h. The collected cells were fixed by adding 70% ethanol at 4 °C for 12 h. Subsequently, the cells were resuspended in PBS containing 100 μL RNase A and 400 μL of PI for 30 min. The DNA content of the cells was measured using a FACS Calibur flow cytometer (BectoneDickinson, San Jose, CA, USA).

[1] = tested on: p-cdc25c, cdc2 and cyclin B1; experiment: Western blot of G2/M-related proteins; assay type: cell-based, human; conditions: HepG2, 72 h, concentration-dependent
Protocol: HepG2 cells were incubated with different doses of 6k for 72 h. Cells were collected, centrifuged, and washed two times with ice-cold PBS. The pellet was then re-suspended in lysis buffer. After the cells were lysed on ice for 20 min, lysates were centrifuged at 13000 g at 4 °C for 15 min. The protein concentration in the supernatant was determined using the BCA protein assay reagents. Equal amounts of protein (20 μg) were resolved using sodium dodecyl sulfate-polyacrylamide gel electrophoresis (SDS-PAGE) (10–12% acrylamide gels) and transferred to PVDF membrane. Membranes were blocked for 1 h at room temperature. Membranes were then incubated with primary antibodies against p-cdc25c, cdc2, cyclin B1, Bax, Bcl-2, cytochrome C, caspase-3, VDAC1 and β-actin, the membrane being gently rotated overnight at 4 °C. The bound antibodies were detected using horseradish peroxidase (HRP)-conjugated second antibodies and visualised by the enhanced chemiluminescent reagent.

[2] = LWP coefficient (log D) measurement, shake flask; assay type: physicochemical; conditions: pH 7.4
Protocol: Berberine, 3c and 6k of 1 mg were dissolved in three centrifugal tubes (5 ml) containing phosphate buffer (pH 7.4)-saturated 1-octanol solution (2 mL), followed by the addition of 1-octanol saturated PBS (2 mL). Each tube was vigorously mixed for 1 min and then shaken for 6 h at a speed of 1000 rpm at 37 °C. The mixtures were then centrifuged. 1 mL of 1-octanol phase and 1 mL of buffer were separately collected. Each phase was diluted to a suitable concentration and analysed by HPLC (Shimadzu DGU-20A3R) on a Shimadzu-GL WondaSil C18-WR column (λ = 254 nm) with an eluent of methanol/water (65/35, v/v, 1.0 ml/min). The log D value for each compound was calculated from the ratio of the peak areas using the following equation: Log D = log (Areaoct × x/Areabuf × y). x, y is the dilution factor.

[3] = Aqueous solubility measurement by HPLC; assay type: physicochemical; conditions: 25 °C, pH 7.4, aqueous buffer, thermodynamic from solid
Protocol: Berberine, 3c and 6k (5 mg) were dissolved in 1 ml PBS (50 mM, pH 7.4) at 25 °C. The suspension was sonicated for 30 min and then centrifuged at 15000 g for 5 min. The supernatant was filtered through a PTFE filter (0.2 μm) slowly. Then 10 μL filtered solution was injected into the HPLC system (Shimadzu DGU-20A3R) on a Shimadzu-GL WondaSil C18-WR column and quantified using the standard curves made by the corresponding known concentrations of berberine, 3c and 6k. The eluent was methanol/water (65/35, v/v) at a flow rate of 1.0 ml/min with the detection wavelength at 254 nm.

[4] = tested on: H22 liver cancer xenograft; experiment: In vivo anti-HCC assay, H22 liver cancer xenograft mouse model; parameters: species or system mice; conditions: intravenous; for tumour inhibitory rate (TIR, w/w): once a day for 21 days, H22 mice
Protocol: Five-week-old male Institute of Cancer Research (ICR) mice were purchased from Shanghai SLAC Laboratory Animals Co. Ltd. Briefly, a total of 1 × 10^6 H22 cells were subcutaneously inoculated into the right flank of ICR mice according to protocols of tumour transplant research, to initiate tumour growth. After incubation for one day, mice were weighed and randomly divided into 5 groups of 8 animals. The groups were administered berberine (30 mg/kg) and 6k (15 or 30 mg/kg) in a vehicle of 10% DMF/2% Tween 80/88% saline, respectively. Vehicle and cyclophosphamide (20 mg/kg) were employed as negative and positive controls, respectively. Treatments were performed by intravenous injection once per day for a total of 21 consecutive days. Body weights and tumour volumes were measured every 2 days. The mice were sacrificed after the treatments, and the tumours were excised and weighed. The tumour volume and inhibition rate (w/w) were calculated as follows: tumour volume = L × W^2/2, where L is the length and W is the width; tumour inhibitory ratio (%) = (1-average tumour weight of treated group/average tumour weight of control group) × 100%. All procedures were performed following institutional approval in accordance with the NIH Guide for the Care and Use of Laboratory Animals.

[5] = tested on: human hepatoma cells including HepG2, Sk-Hep-1 and Huh-7 cells; experiment: Antiproliferative MTT assay, summary over human hepatoma cells; assay type: cell-based; conditions: read-out: IC50 values against human hepatoma cells (span over cell lines)
Protocol: as §1

c-MYC G4 DNA (FPu18T) = experiment: FRET-melting assay, FPu18T (c-MYC G4 DNA model); conditions: 2 μM compounds

Q: What does the source list for CCCCCCCCc1c2[n+](cc3c(OCCCCCCCCN4CCN(C)CC4)c(OC)ccc13)CCc1cc3c(cc1-2)OCO3.[Br-] [Compound 6k, 10-Methoxy-9-((8–(4-methylpiperazin-1-yl)octyl)oxy)-13-octyl-5,6-dihydro-[1,3]dioxolo[4,5-g]isoquinolino[3,2-a]isoquinolin-7-ium bromide]?
A: IC50 (Huh-7 cells): 620 ± 40 nM; IC50 (Hep3B cells): 1600 ± 110 nM; IC50 (normal hepatocytes L-02): 7680 ± 670 nM; Effect on cell cycle progression (HepG2 cells; HepG2, 0.25-1.0 μM, 72 h): cell cycle arrest at G2/M phase; G2 phase cell percentage (HepG2 cells; HepG2, 6k 0.25 μM): 23.56%; S phase cell percentage (HepG2 cells; HepG2, 6k 0.25 μM): 16.19%; G1 phase cell percentage (HepG2 cells; HepG2, 6k 0.25 μM): 60.24%; G2 phase cell percentage (HepG2 cells; HepG2, 6k 0.50 μM): 29.49%; S phase cell percentage (HepG2 cells; HepG2, 6k 0.50 μM): 22.68%; G1 phase cell percentage (HepG2 cells; HepG2, 6k 0.50 μM): 47.82%; G2 phase cell percentage (HepG2 cells; HepG2, 6k 1.0 μM): 32.16%; S phase cell percentage (HepG2 cells; HepG2, 6k 1.0 μM): 26.95%; G1 phase cell percentage (HepG2 cells; HepG2, 6k 1.0 μM): 40.88%; total cell percentages of G1 and S phases (HepG2 cells; HepG2, 6k 1.0 μM, 72 h (control 82.00%)): 67.83%; cdc2 [1]: inhibited cdc2 kinase activation; cdc25c phosphorylation (p-cdc25c) [1]: significantly promoted cdc25c phosphorylation; cyclin B1 [1]: reduced cyclin B1 binding; logD [2]: 3.87; solubility at 30 min [3]: 1080 µg/mL; tumour inhibitory rate (TIR, w/w) ([4]; 15 mg/kg): 50.4%; tumour inhibitory rate (TIR, w/w) ([4]; 30 mg/kg): 61.1%; mice body weights during treatment ([4]; 15 or 30 mg/kg, 21 days): didn’t cause significant loss in mice body weights; IC50 [5]: 620 to 1690 nM; melting point: 151 to 153 °C; ΔTm(A) = Tm(FPu18T + compound) - Tm(FPu18T) (c-MYC G4 DNA (FPu18T)): 13.8 °C
